# Measurements as given in ChEMBL document CHEMBL2073962, “Wild-type breast cancer resistance protein (BCRP/ABCG2) is a methotrexate polyglutamate transporter” (Cancer Res, 2003).
# T1: Broad substrate specificity ATP-binding cassette transporter ABCG2 (Homo sapiens, UniProt Q9UNQ0)
# T1 sequence (Q9UNQ0 whole entry): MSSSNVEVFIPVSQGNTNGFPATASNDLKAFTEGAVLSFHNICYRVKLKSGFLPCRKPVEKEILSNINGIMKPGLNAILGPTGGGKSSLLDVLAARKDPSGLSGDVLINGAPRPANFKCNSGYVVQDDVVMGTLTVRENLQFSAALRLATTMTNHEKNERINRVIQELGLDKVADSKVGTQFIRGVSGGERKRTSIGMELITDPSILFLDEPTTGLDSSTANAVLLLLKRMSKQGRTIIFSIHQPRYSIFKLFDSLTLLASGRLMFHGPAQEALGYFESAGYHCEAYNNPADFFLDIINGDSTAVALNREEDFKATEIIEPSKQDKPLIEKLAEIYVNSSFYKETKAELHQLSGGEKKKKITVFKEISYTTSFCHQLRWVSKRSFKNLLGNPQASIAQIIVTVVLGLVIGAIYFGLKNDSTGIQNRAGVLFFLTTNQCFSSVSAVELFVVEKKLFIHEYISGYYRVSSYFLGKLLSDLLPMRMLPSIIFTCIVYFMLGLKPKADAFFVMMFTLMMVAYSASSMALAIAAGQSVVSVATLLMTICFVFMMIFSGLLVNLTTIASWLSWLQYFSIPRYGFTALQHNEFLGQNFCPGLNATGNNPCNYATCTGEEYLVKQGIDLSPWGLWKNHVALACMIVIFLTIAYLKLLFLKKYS
# B1: Broad substrate specificity ATP-binding cassette transporter ABCG2 (Homo sapiens) (protein)
# chain: T1 sequence (Q9UNQ0 whole entry)
# Tests used:
# [1] = target: T1, Broad substrate specificity ATP-binding cassette transporter ABCG2; test: (§1) TP_TRANSPORTER: uptake (vesicle) in membrane vesicles from BCRP-expressing MCF7 cells; format: functional, cell membranes
# [2] = target: T1, Broad substrate specificity ATP-binding cassette transporter ABCG2; test: TP_TRANSPORTER: inhibition of MTX in membrane vesicles from BCRP-expressing MCF7 cells; format: functional, cell membranes, Membrane vesicle
# [3] = target: T1, Broad substrate specificity ATP-binding cassette transporter ABCG2; test: TP_TRANSPORTER: inhibition of MTX update by Mitoxantrone at a concentration of 50uM in membrane vesicles from BCRP-expressing MCF7 cells; format: functional, cell membranes, Membrane vesicle; set-up: scale not given: the % may be the effect or the level left; conditions: mcf7, 50 µM
# [4] = substrate: CN(Cc1cnc2nc(N)nc(N)c2n1)c1ccc(C(=O)N[C@@H](CCC(=O)O)C(=O)O)cc1; test: as §1; format: functional, cell membranes
molecule,measurement,setting,value
CN(Cc1cnc2nc(N)nc(N)c2n1)c1ccc(C(=O)N[C@@H](CCC(=O)N[C@@H](CCC(=O)N[C@@H](CCC(=O)N[C@@H](CCC(=O)O)C(=O)O)C(=O)O)C(=O)O)C(=O)O)cc1,Activity,[1],substrate []
COc1ccc2c3c([nH]c2c1)[C@H](C=C(C)C)N1C(=O)[C@@H]2CCCN2C(=O)[C@@H]1C3 [FUMITREMORGIN],Activity,[2],inhibitor []
O=C1c2c(O)ccc(O)c2C(=O)c2c(NCCNCCO)ccc(NCCNCCO)c21 [MITOXANTRONE],Activity,[3],50%
CN(Cc1cnc2nc(N)nc(N)c2n1)c1ccc(C(=O)N[C@@H](CCC(=O)N[C@@H](CCC(=O)N[C@@H](CCC(=O)O)C(=O)O)C(=O)O)C(=O)O)cc1,Activity,[1],substrate []
B1,Km,[4],680 µM
